Patent US20230416329A1, “A PEPTIDE WITH DISULFIDE BONDS AND INHIBITORY ACTIVITY AGAINST SERINE PROTEASES, DERIVED HYBRID PEPTIDES THEREOF, AND USES THEREOF” (INSTITUTE OF MATERIA MEDICA , CHINESE ACADEMY OF MEDICAL …, priority 2020, published 2023)
Bridge positions count the residues as written; N and C are the ends. Peptide text beside a SMILES is read from it.

Tests used:
[1] = target: chymotrypsin (Bos taurus, UniProt P00766); assay: in vitro; conditions: for Remaining peak area (%)/chymotrypsin: 0 h; for remaining at 0.025 h, 60 μM / remaining at 0.05 h, 60 μM / remaining at 0.075 h, 60 μM / remaining at 0.1 h, 60 μM / remaining at 0.15 h, 60 μM / remaining at 0.25 h, 60 μM / remaining at 0.5 h, 60 μM / remaining at 1 h, 60 μM: isolated enzyme chymotrypsin, pH 7.8, Remaining peak area (%)/chymotrypsin
Description: FIG. 18. […] At different time point, 25 μL aliquots was taken out, and 10% (v/v) TFA was added to terminate the reaction.
(§1) Mix by centrifugation at 8000 rpm for 30 seconds.
(§2) Arrange a certain volume of 0.05 μg/μL chymotrypsin solution in another sterile EP. Incubate the EP tubes containing peptides and enzymes at 37° C. for 5 min, and add 3 μL of […] solution to each EP tube containing peptides and mix well. Start timing and extract 25 μL of reaction solution at 1.5, 3.0, 4.5, 6.0 and 9.0 min later, respectively. Add 3.75 μL of 10% TFA to terminate the reaction and mix well by centrifugation at 8000 rpm for 30 seconds.
(§3) Arrange a certain volume of 0.05 μg/μL chymotrypsin solution in another sterile EP. Incubate the EP tubes containing peptides and enzymes at 37° C. for 5 min, and then add 4.5 μL of chymotrypsin solution to each EP tube containing peptides and mix well. Start timing and extract 25 μL of reaction solution at 1.5, 3.0, 4.5, 6.0, 9.0, 15.0, 30.0, and 60.0 min later, respectively. Add 3.75 μL of 10% TFA to terminate the reaction and mix well by centrifugation at 8000 rpm for 30 seconds.
(§4) Referring to the experimental method in Example 5, in vitro stability of salmon Calcitonin analogs with oral administration activity to the enzymatic hydrolysis by trypsin, chymotrypsin and elastase were performed.
(§5) Referring to the experimental method in Example 5, in vitro stability of IL-17A inhibitory peptides towards the enzymatic hydrolysis by trypsin, chymotrypsin and elastase were performed.

[2] = target: T1, trypsin (Bos taurus, UniProt P00760); assay: in vitro
T1 sequence (P00760 24-246): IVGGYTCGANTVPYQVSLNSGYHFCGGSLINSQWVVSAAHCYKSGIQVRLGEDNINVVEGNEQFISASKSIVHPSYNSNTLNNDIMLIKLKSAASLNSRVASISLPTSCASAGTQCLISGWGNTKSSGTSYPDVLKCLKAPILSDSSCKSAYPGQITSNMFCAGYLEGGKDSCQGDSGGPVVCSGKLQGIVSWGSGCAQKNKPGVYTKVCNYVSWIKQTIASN
Description: FIG. 17. […] At different time point, 25 μL aliquots was taken out, and 10% (v/v) TFA was added to terminate the reaction.
as §1
as §2, with “0.05 μg/μL trypsin solution in” for “0.05 μg/μL chymotrypsin solution in”, “min, and separately add 6” for “min, and add 3”, “separately add 6 μL of” for “and add 3 μL of”
as §3, with “μg/μL trypsin” for “μg/μL chymotrypsin”, “and” for “and then”, “add 9” for “add 4.5”, “of trypsin” for “of chymotrypsin”
as §4, §5

[3] = target: α-chymotrypsin (Bos taurus, UniProt P00766); assay: Chymotrypsin inhibitory activity of peptides (AAPFpNA hydrolysis; IC50, Ki, residual activity); type: biochemical; conditions: for IC50: chymotrypsin 30 nM, AAPFpNA 0.5 mM
In short: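 Peptide preincubated 10 min at 37 °C with 30 nM α-chymotrypsin in 50 mM Tris-HCl pH 7.8, 20 mM CaCl2; 0.5 mM AAPFpNA then added and A405 read after 90 min. Residual activity versus controls gave IC50; Ki = IC50/(1+S/Km), with Km measured separately.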

[4] = isolated enzyme trypsin, pH 7.8

Structure (SMILES)	Remaining peak area (%)/chymotrypsin [1]	remaining at 0.025 h, 60 μM [1]	remaining at 0.05 h, 60 μM [1]	remaining at 0.075 h, 60 μM [1]	remaining at 0.1 h, 60 μM [1]	remaining at 0.15 h, 60 μM [1]	remaining at 0.25 h, 60 μM [1]	remaining at 0.5 h, 60 μM [1]	remaining at 1 h, 60 μM [1]	inhibitory activity against chymotrypsin (in words) [3]	IC50 [3]	further results
CC[C@H](C)[C@H](N)C(=O)N[C@@H](Cc1c[nH]cn1)C(=O)N[C@H](C(=O)N[C@H](C(=O)N[C@H](C(=O)N1CCC[C@H]1C(=O)N[C@@H](C)C(=O)N[C@@H](CC(=O)O)C(=O)N[C@@H](CC(C)C)C(=O)N[C@@H](Cc1c[nH]c2ccccc12)C(=O)N[C@@H](CC(=O)O)C(=O)N[C@@H](Cc1c[nH]c2ccccc12)C(=O)N[C@H](C(=O)N[C@@H](CC(N)=O)C(=O)NCC(=O)N[C@H]1CSSC[C@@H](C(=O)N[C@@H](Cc2ccccc2)C(=O)O)NC(=O)[C@H]([C@@H](C)CC)NC(=O)[C@@H]2CCCN2C(=O)[C@@H]2CCCN2C(=O)[C@H]([C@@H](C)CC)NC(=O)[C@H](CO)NC(=O)[C@H](CCCCN)NC(=O)[C@H]([C@@H](C)O)NC(=O)[C@H](C)NC(=O)[C@H](CCCNC(=N)N)NC(=O)CNC1=O)[C@@H](C)CC)[C@@H](C)CC)[C@@H](C)O)C(C)C [17A-BT] (H-IHVTIPADLWDWINGCGRATKSIPPICF-OH; disulfide 16-27)	100.0 ± 0.0%	69.6 ± 3%	68.9 ± 4.8%	48.1 ± 4.3%	45.2 ± 1.3%	42.9 ± 3%	37 ± 1.7%	26.4 ± 0.4%	9.6 ± 0.8%	–	–	stability towards trypsin hydrolysis (in words) [2]: tolerated to the degradation of corresponding serine proteases
CC[C@H](C)[C@@H]1NC(=O)[C@H](CO)NC(=O)[C@H](Cc2ccc(O)cc2)NC(=O)[C@H]([C@@H](C)O)NC(=O)[C@@H](NC(=O)[C@H](Cc2ccccc2)NC(=O)CNC(=O)[C@@H]2CCCN2C(=O)[C@@H](NC(=O)CNC(=O)[C@H](CO)NC(=O)CNC(=O)[C@@H](NC(=O)[C@H](CC(N)=O)NC(=O)[C@@H](NC(=O)[C@H](CCCNC(=N)N)NC(=O)[C@@H]2CCCN2C(=O)[C@H](Cc2ccc(O)cc2)NC(=O)[C@@H](NC(=O)[C@H](CCC(N)=O)NC(=O)[C@H](CC(C)C)NC(=O)[C@H](CCCCN)NC(=O)[C@H](Cc2c[nH]cn2)NC(=O)[C@H](C)NC(=O)[C@H](CCC(=O)O)NC(=O)[C@H](CCC(N)=O)NC(=O)[C@H](CO)NC(=O)[C@H](CC(C)C)NC(=O)[C@H](CCCCN)NC(=O)CNC(=O)[C@H](CC(C)C)NC(=O)CNC(=O)[C@@H]2CSSC[C@H](N)C(=O)N[C@@H](CO)C(=O)N[C@@H](CC(N)=O)C(=O)N[C@@H](CC(C)C)C(=O)N[C@@H](CO)C(=O)N[C@@H]([C@@H](C)O)C(=O)N2)[C@@H](C)O)[C@@H](C)O)[C@@H](C)O)[C@@H](C)O)CSSC[C@@H](C(=O)N[C@@H](Cc2ccc(O)cc2)C(=O)NCC(=O)O)NC(=O)[C@H](CCC(N)=O)NC(=O)[C@@H]2CCCN2C(=O)[C@@H]2CCCN2C1=O [Cal-CH]	100.0 ± 0.0%	89.3 ± 2.9%	90.9 ± 4.7%	83.8 ± 0.4%	82.2 ± 4.1%	52.4%	51.8 ± 0.4%	51.2 ± 1.8%	24.6 ± 0.5%	–	–	stability towards chymotrypsin hydrolysis (in words) [1]: resistant to the corresponding protease degradation; Remaining peak area (%)/Trypsin ([2]; 0 h): 100.0 ± 0.0%; remaining at 0.025 h, 60 μM [2, 4]: 13.4 ± 2.3%; remaining at 0.05 h, 60 μM [2, 4]: 0%; remaining at 0.075 h, 60 μM [2, 4]: 0%; remaining at 0.1 h, 60 μM [2, 4]: 0%; remaining at 0.15 h, 60 μM [2, 4]: 0%
CC[C@H](C)[C@@H]1NC(=O)[C@H](CO)NC(=O)[C@H](Cc2ccc(O)cc2)NC(=O)[C@H]([C@@H](C)O)NC(=O)[C@@H](NC(=O)[C@@H](N)Cc2ccccc2)CSSC[C@@H](C(=O)N[C@@H](CCCNC(=N)N)C(=O)O)NC(=O)[C@H](CCC(N)=O)NC(=O)[C@@H]2CCCN2C(=O)[C@@H]2CCCN2C1=O [CH35] (H-FCTYSIPPQCR-OH; disulfide 2-10; C-terminus assumed)	–	–	–	–	–	–	–	–	–	good inhibitory activity	–	Residual activity of chymotrypsin ([3]; peptide 1000 μM): 0.9 ± 0.1%
CC[C@H](C)[C@@H]1NC(=O)[C@H](CO)NC(=O)[C@H](Cc2ccc(O)cc2)NC(=O)[C@H]([C@@H](C)O)NC(=O)[C@@H](NC(=O)[C@@H]2CCCN2)CSSC[C@@H](C(=O)N[C@@H](Cc2ccc(O)cc2)C(=O)O)NC(=O)[C@H](CCC(N)=O)NC(=O)[C@@H]2CCCN2C(=O)[C@@H]2CCCN2C1=O [CH51] (H-PCTYSIPPQCY-OH; disulfide 2-10; N-terminus and C-terminus assumed)	–	–	–	–	–	–	–	–	–	good chymotrypsin inhibitory activity	–	–
CC[C@H](C)[C@@H]1NC(=O)[C@H](CO)NC(=O)[C@H](Cc2ccc(O)cc2)NC(=O)[C@H]([C@@H](C)O)NC(=O)[C@H](C)NC(=O)[C@H](CO)NC(=O)CNC(=O)CNC(=O)[C@@H](N)CSSC[C@@H](C(=O)N[C@@H](Cc2ccc(O)cc2)C(=O)O)NC(=O)[C@H](CCC(N)=O)NC(=O)[C@@H]2CCCN2C(=O)[C@@H]2CCCN2C1=O [CH29] (H-CGGSATYSIPPQCY-OH; disulfide 1-13; N-terminus and C-terminus assumed)	–	–	–	–	–	–	–	–	–	–	> 50 µM	–
CC[C@H](C)[C@@H]1NC(=O)[C@@H]2CCCN2C(=O)[C@@H]2CCCN2C(=O)[C@H]([C@@H](C)CC)NC(=O)[C@H](CO)NC(=O)[C@H](Cc2ccc(O)cc2)NC(=O)[C@H](CC(C)C)NC(=O)[C@@H](NC(=O)[C@H](CCCCN)NC(=O)CN)CSSC[C@@H](C(=O)N[C@@H](Cc2ccccc2)C(=O)N2CCC[C@H]2C(=O)N[C@@H](CC(N)=O)C(=O)O)NC1=O [CH20] (H-GKCLYSIPPICFPN-OH; disulfide 3-11; N-terminus and C-terminus assumed)	–	–	–	–	–	–	–	–	–	–	16.4 µM	Ki ([3]; Ki=IC50/(1+S/Km), Km 0.38 mM): 7.1 µM
